Assay results reported in patent US4393225A, “AI-77 Compounds and pharmaceutically acceptable salts thereof” (Asahi Kasei Kogyo Kabushiki Kaisha, priority 1979, dated 1983).

Assays:
ulcer = assay: Anti-ulcer test (restraint and water immersion ulcer in rats, i.p.); assay type: in vivo, Male Wistar rats; settings: Rattus norvegicus, ip; 50 mg/kg i.p.; read-out: % Inhibition of Ulcer
How it was run: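 Compound given intraperitoneally in saline to 24 h-fasted male Wistar rats about 150 g, followed after one hour by 6 h restraint with water immersion at 21 °C. Gastric lesions graded 0, 0.5, 1, 2 or 3 on microscopic inspection and converted to percent ulcer inhibition.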

[1] = Solubility of compounds A to G; assay type: physicochemical; settings: in water and organic solvents
[2] = Stability (heat, alkali, aqueous solution) of compounds A to G; assay type: physicochemical

Row | SMILES | inhibition in vivo at 50 mg/kg (ulcer) | solubility [1] | stability to heat and/or alkali [2] | stability in aqueous solution ([2]; aqueous solution)
1 | CC(C)CC(NC(=O)C(O)C1C=CC(=O)O1)C1Cc2cccc(O)c2C(=O)O1 (stereo not drawn) [F] | 44% | freely soluble in ethyl acetate, chloroform, dimethylformamide and dimethyl sulfoxide, sparingly soluble in lower alcohols and dioxane, and substantially insoluble in water, hexane and benzene | as labile to alkali as AI-77-B | –
2 | CC(C)CC(NC(=O)C(O)C(O)C(N)CC(=O)O)C(O)Cc1cccc(O)c1C(=O)O (stereo not drawn) [G] | 33% | freely soluble in water and slightly soluble in organic solvents | – | relatively stable in aqueous solution
